{"source": "patent US11691980B2", "about": "“Liphagal analog and multi-targeted kinase inhibitor containing liphagal or analog thereof” (TOHOKU UNIVERSITY, priority 2017, dated 2023)", "key": {"[1]": {"biological_target": "T1, ALK (Homo sapiens, UniProt Q9UM73)", "T1 construct": "purchased Carna Biosciences", "T1 sequence (Q9UM73 19-1620)": "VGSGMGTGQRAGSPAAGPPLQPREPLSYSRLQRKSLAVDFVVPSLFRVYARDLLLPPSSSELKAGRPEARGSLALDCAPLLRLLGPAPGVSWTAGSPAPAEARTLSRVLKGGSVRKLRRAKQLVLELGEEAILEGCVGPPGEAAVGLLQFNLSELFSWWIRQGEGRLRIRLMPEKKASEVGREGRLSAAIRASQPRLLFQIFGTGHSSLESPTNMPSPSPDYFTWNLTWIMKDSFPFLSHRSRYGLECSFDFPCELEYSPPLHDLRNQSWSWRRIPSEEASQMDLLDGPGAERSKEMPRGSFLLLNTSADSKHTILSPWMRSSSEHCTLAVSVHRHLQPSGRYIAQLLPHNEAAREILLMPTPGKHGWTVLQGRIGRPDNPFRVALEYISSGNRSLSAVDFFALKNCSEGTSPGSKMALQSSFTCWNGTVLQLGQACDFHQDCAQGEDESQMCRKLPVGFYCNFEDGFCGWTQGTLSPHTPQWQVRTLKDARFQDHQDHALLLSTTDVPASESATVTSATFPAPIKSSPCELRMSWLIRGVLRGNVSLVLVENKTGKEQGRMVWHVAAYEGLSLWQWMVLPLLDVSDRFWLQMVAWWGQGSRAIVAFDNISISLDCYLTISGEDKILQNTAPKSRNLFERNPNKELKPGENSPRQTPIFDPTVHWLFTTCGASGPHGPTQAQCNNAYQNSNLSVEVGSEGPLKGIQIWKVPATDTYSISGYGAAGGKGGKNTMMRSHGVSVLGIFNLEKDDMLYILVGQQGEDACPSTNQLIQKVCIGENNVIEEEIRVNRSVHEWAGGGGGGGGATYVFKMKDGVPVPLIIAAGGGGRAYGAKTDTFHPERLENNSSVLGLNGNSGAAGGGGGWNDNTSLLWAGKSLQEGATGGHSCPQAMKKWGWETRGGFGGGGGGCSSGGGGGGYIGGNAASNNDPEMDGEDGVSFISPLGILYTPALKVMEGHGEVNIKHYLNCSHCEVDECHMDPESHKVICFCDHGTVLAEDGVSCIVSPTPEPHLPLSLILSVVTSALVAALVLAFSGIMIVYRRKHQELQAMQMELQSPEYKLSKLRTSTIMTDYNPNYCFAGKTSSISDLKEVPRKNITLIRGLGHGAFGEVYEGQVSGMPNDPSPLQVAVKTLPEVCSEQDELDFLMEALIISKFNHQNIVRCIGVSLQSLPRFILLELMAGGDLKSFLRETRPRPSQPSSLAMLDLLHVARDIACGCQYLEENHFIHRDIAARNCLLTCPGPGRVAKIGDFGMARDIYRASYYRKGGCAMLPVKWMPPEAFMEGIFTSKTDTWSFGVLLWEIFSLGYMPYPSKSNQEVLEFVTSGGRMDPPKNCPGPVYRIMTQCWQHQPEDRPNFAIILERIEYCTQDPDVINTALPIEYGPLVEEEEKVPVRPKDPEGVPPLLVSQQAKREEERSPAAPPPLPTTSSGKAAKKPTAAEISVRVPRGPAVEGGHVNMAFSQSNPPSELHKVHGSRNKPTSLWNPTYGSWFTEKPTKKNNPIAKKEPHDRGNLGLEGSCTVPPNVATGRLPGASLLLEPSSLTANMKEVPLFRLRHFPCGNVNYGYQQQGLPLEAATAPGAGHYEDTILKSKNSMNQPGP", "assay": "mobility shift assay", "format": "biochemical"}, "[2]": {"biological_target": "T2, EPHA5 (Homo sapiens, UniProt P54756)", "T2 construct": "purchased Carna Biosciences", "T2 sequence (P54756 25-1037)": "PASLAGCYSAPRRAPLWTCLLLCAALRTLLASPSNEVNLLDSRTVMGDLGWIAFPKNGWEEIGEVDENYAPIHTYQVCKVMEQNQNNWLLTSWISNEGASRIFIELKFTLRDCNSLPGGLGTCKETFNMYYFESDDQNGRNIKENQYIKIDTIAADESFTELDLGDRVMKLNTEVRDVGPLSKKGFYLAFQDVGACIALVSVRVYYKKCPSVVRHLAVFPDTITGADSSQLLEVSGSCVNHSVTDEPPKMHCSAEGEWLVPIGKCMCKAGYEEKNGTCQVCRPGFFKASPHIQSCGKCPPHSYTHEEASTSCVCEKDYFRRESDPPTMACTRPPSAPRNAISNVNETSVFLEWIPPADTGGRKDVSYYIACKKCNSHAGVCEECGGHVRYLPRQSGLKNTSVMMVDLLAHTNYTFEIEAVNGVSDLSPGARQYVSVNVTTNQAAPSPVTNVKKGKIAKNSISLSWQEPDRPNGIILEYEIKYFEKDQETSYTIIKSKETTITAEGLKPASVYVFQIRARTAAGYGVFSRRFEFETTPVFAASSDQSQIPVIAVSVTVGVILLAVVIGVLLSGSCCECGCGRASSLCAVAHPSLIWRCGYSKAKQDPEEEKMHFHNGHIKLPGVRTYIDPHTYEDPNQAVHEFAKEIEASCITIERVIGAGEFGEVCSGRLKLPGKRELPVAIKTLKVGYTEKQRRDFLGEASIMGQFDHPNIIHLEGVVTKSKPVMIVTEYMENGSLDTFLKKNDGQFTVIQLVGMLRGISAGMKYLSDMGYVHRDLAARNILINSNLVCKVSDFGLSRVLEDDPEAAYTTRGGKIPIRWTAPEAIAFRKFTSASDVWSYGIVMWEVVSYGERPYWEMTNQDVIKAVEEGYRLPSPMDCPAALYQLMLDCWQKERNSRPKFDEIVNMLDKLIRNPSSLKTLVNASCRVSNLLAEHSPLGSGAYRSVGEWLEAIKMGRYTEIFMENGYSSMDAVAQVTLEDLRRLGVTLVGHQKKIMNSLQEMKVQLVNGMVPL", "assay": "mobility shift assay", "format": "biochemical"}}}
{"smiles": "C[C@@H]1CC[C@H]2C(C)(C)CCC[C@]2(C)c2c1oc1c(C=O)c(O)c(O)cc21", "note": "[LG-1, liphagal]", "values": [{"measurement": "inhibition at 10 µM", "setting": "[1]", "result": 9, "unit": "%"}, {"measurement": "inhibition at 10 µM", "setting": "[2]", "result": 2.3, "unit": "%"}]}
